In experiment [1] the target is T1, Sodium-dependent serotonin transporter (Rattus norvegicus, UniProt P31652). The experiment can be described thus: Inhibitory activity against incorporation of [3H]5-HT transporter uptake into the differentiated N-2a cells. Format: cell-based.
In experiment [2] the target is T1, Sodium-dependent serotonin transporter. The experiment can be described thus: Inhibitory activity against incorporation of Serotonin transporter uptake into the differentiated N-2a cells. It is filed as cell-based.

The values below come from ChEMBL document CHEMBL1123040, “Molecular mechanism of action of 5,6-dihydroxytryptamine. Synthesis and biological evaluation of 4-methyl-, 7-methyl-, and 4,7-dimethyl-5,6-dihydroxytryptamines” (J Med Chem, 1985).

The structures appear in SMILES notation.

T1 sequence (P31652 whole entry): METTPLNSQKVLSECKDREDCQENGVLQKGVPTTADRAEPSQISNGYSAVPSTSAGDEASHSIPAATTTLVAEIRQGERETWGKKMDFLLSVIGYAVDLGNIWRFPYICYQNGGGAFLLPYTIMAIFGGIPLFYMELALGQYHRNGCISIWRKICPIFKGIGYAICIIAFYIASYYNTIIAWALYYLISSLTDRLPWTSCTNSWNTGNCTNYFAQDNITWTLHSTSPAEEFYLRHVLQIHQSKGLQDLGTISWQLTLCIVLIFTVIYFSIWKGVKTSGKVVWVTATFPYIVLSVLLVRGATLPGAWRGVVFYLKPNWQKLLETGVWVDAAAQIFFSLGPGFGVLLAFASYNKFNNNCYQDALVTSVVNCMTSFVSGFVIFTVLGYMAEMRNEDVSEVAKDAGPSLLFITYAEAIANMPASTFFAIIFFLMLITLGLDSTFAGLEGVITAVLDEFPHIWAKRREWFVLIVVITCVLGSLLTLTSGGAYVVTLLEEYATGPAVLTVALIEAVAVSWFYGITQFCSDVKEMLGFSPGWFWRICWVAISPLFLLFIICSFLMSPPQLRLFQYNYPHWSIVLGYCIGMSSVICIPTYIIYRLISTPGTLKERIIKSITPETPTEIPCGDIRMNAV

One may read the IC50 as the midpoint of a concentration-inhibition curve. Low readings indicate higher potency, high ones lower potency. In turn, `Cc1c(O)c(O)cc2c(CCN)c[nH]c12` registered an IC50 in experiment [1] of 51.8 µM. On to `NCCc1c[nH]c2cc(O)c(O)cc12`, for which, in experiment [2], half-maximal inhibition (IC50) required 6 µM. For `Cc1c(O)c(O)c(C)c2c(CCN)c[nH]c12`, the 50% inhibitory concentration (IC50) in experiment [1] turned out to be 19.7 µM. On the same count and under the same terms, under `Cc1c(O)c(O)cc2[nH]cc(CCN)c12` stands 23 µM.
